Source: US20170275270A1, “BENZYL SUBSTITUTED INDAZOLES” (Bayer Pharma Aktiengesellschaft, priority 2014, published 2017)
“And” between values parts separate entries of the source, which are not always exact repeats. Identical values can stand only once.

Molecular target: T1, catalytic domain of human Bub1 (amino acids 704-1085) (Homo sapiens, UniProt O43683)
T1 construct: catalytic domain of human Bub1 (amino acids 704-1085); His6 (N); made in house; host or cells: Hi5 insect cells
Assay: Bub1 kinase assay (TR-FRET)
Format: biochemical
Conditions: 10 μM ATP, read-out: Biological Assay 1: Bub1 kinase assay median IC50
Procedure: To this end, 100-fold concentrated compound solutions (in DMSO) were previously prepared by serial dilution (1:3.4) of 2 mM stocks in a clear low volume 384-well source microtiter plate (Greiner Bio-One, Frickenhausen, Germany), from which 50 nL of compounds were transferred into a black low volume test microtiter plate from the same supplier. […] The resulting mixture (5 μL final volume) was incubated at 22° C. during 60 min., and the reaction was stopped by the addition of 5 μL of an aqueous EDTA-solution (50 mM EDTA, in 100 mM HEPES pH 7.5 and 0.2% (w/v) bovine serum albumin) which also contained the TR-FRET detection reagents (0.2 μM streptavidin-XL665 [Cisbio Bioassays, Codolet, France] and 1 nM anti-phosho-Serine antibody [Merck Millipore, cat. #35-001] and 0.4 nM LANCE EU-W1024 labeled anti-mouse IgG antibody [Perkin-Elmer, product no. AD0077, alternatively a Terbium-cryptate-labeled anti-mouse IgG antibody from Cisbio Bioassays can be used]). The stopped reaction mixture was further incubated 1 h at 22° C. in order to allow the formation of complexes between peptides and detection reagents. Subsequently, the amount of product was evaluated by measurement of the resonance energy transfer from the Eu-chelate-antibody complex recognizing the Phosphoserine residue to the streptavidin-XL665 bound to the biotin moiety of the peptide. […] IC50 values were calculated by fitting the normalized inhibition data to a 4-parameter logistic equation (Minimum, Maximum, IC50, Hill; Y=Max+(Min−Max)/(1+(X/IC50) Hill)).

T1 sequence (O43683 704-1085): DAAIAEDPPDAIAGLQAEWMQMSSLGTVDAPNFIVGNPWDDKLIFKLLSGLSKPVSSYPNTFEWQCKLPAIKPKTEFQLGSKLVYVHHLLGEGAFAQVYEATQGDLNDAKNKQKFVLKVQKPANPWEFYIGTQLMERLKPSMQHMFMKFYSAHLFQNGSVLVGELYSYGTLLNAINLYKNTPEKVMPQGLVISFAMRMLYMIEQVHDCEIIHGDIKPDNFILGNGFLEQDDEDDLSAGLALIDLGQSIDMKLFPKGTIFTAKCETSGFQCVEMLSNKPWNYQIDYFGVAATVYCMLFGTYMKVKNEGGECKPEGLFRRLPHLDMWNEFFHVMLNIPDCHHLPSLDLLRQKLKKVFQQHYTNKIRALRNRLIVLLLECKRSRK

IC50 [nM] | SMILES
15 | COCCOc1cc(F)c(Cn2nc(-c3nc(Nc4ccncc4OC)cc(C(C)C)n3)c3ccccc32)c(F)c1 [Example 2-12-73, 2-{1-[2,6-difluoro-4-(2-methoxyethoxy)benzyl]-1H-indazol-3-yl}-6-isopropyl-N-(3-methoxypyridin-4-yl)pyrimidin-4-amine]
180 | COCCOc1cc(F)c(Cn2nc(-c3nc(Nc4cc(C)ncc4C)cc(C(C)C)n3)c3ccccc32)c(F)c1 [Example 2-12-74, 2-{1-[2,6-difluoro-4-(2-methoxyethoxy)benzyl]-1H-indazol-3-yl}-N-(2,5-dimethylpyridin-4-yl)-6-isopropylpyrimidin-4-amine]
6.2 | COCCOc1cc(F)c(Cn2nc(-c3nc(C)c(C)c(Nc4ccncc4OC)n3)c3ccccc32)c(F)c1 [Example 2-12-76, 2-{1-[2,6-difluoro-4-(2-methoxyethoxy)benzyl]-1H-indazol-3-yl}-N-(3-methoxypyridin-4-yl)-5,6-dimethylpyrimidin-4-amine]
6.7 | COCCOc1cc(F)c(Cn2nc(-c3nc(C)cc(Nc4ccncc4OC)n3)c3ccccc32)c(F)c1 [Example 2-12-77, 2-{1-[2,6-difluoro-4-(2-methoxyethoxy)benzyl]-1H-indazol-3-yl}-N-(3-methoxypyridin-4-yl)-6-methylpyrimidin-4-amine]
12 | COCCOc1cc(F)c(Cn2nc(-c3nc(C)cc(Nc4ccncc4OC(F)(F)F)n3)c3ccccc32)c(F)c1 [Example 2-12-78, 2-{1-[2,6-difluoro-4-(2-methoxyethoxy)benzyl]-1H-indazol-3-yl}-6-methyl-N-[3-(trifluoromethoxy)pyr-idin-4-yl]pyrimidin-4-amine]
51 | CCOc1cc(F)c(Cn2nc(-c3nc(C)cc(Nc4ccncc4O)n3)c3ccccc32)c(F)c1 [Example 2-12-80, 4-({2-[1-(4-ethoxy-2,6-difluorobenzyl)-1H-indazol-3-yl]-6-methylpyrimidin-4-yl}amino)pyridin-3-ol]

Same assay, conditions: Biological Assay 1: Bub1 kinase assay median IC50, 10 μM ATP

SMILES | IC50
COCCOc1cc(F)c(Cn2nc(-c3nc4c(c(Nc5cc(C)ncc5C)n3)CCC4)c3ccccc32)c(F)c1 [Example 2-12-57, 2-{1-[2,6-difluoro-4-(2-methoxyethoxy)benzyl]-1H-indazol-3-yl}-N-(2,5-dimethylpyridin-4-yl)-6,7-dihydro-5H-cyclopenta[d]pyrimidin-4-amine] | 130 nM
COCCOc1cc(F)c(Cn2nc(-c3nc4c(c(Nc5cc(C)ncc5F)n3)CCC4)c3ccccc32)c(F)c1 [Example 2-12-58, 2-{1-[2,6-difluoro-4-(2-methoxyethoxy)benzyl]-1H-indazol-3-yl}-N-(5-fluoro-2-methylpyridin-4-yl)-6,7-dihydro-5H-cyclopenta[d]pyrimidin-4-amine] | 17 nM
COCCOc1cc(F)c(Cn2nc(-c3nc4c(c(Nc5ccncc5OC)n3)CCCCC4)c3ccccc32)c(F)c1 [Example 2-12-70, 2-{1-[2,6-difluoro-4-(2-methoxyethoxy)benzyl]-1H-indazol-3-yl}-N-(3-methoxypyridin-4-yl)-6,7,8,9-tetrahydro-5H-cyclohepta[d]pyrimidin-4-amine] | 9.9 nM
COCCOc1cc(F)c(Cn2nc(-c3nc(C)cc(Nc4ccnc(C)n4)n3)c3ccccc32)c(F)c1 [Example 2-12-71, 2-{1-[2,6-difluoro-4-(2-methoxyethoxy)benzyl]-1H-indazol-3-yl}-6-methyl-N-(2-methylpyrimidin-4-yl)pyrimidin-4-amine] | 75 nM
COCCOc1cc(F)c(Cn2nc(-c3nc(Nc4ccnc(C)n4)cc(C(C)C)n3)c3ccccc32)c(F)c1 [Example 2-12-72, 2-{1-[2,6-difluoro-4-(2-methoxyethoxy)benzyl]-1H-indazol-3-yl}-6-isopropyl-N-(2-methylpyrimidin-4-yl)pyrimidin-4-amine] | 670 nM
COCCOc1cc(F)c(Cn2nc(-c3nc(C)c(F)c(Nc4ccnc(C)n4)n3)c3ccccc32)c(F)c1 [Example 2-12-75, 2-{1-[2,6-difluoro-4-(2-methoxyethoxy)benzyl]-1H-indazol-3-yl}-5-fluoro-6-methyl-N-(2-methylpyrimidin-4-yl)pyrimidin-4-amine] | 180 nM
CCOc1cc(F)c(Cn2nc(-c3nc(Nc4ccnc(C)n4)cc(-c4sc(C)nc4C)n3)c3ccccc32)c(F)c1 [Example 2-12-84, 6-(2,4-dimethyl-1,3-thiazol-5-yl)-2-[1-(4-ethoxy-2,6-difluorobenzyl)-1H-indazol-3-yl]-N-(2-methylpyrimidin-4-yl)pyrimidin-4-amine] | 2300 nM
CCOc1cc(F)c(Cn2nc(-c3nc(Nc4ccncn4)cc(-c4sc(C)nc4C)n3)c3ccccc32)c(F)c1 [Example 2-12-85, 6-(2,4-dimethyl-1,3-thiazol-5-yl)-2-[1-(4-ethoxy-2,6-difluorobenzyl)-1H-indazol-3-yl]-N-(pyrimidin-4-yl)pyrimidin-4-amine] | 6000 nM
CCOc1cc(F)c(Cn2nc(-c3nc(Nc4ccnc(C)n4)cc(C4CCOCC4)n3)c3ccccc32)c(F)c1 [Example 2-12-89, 2-[1-(4-ethoxy-2,6-difluorobenzyl)-1H-indazol-3-yl]-N-(2-methylpyrimidin-4-yl)-6-(tetrahydro-2H-pyran-4-yl)pyrimidin-4-amine] | 1100 nM

Continued, values first:

IC50 | SMILES
11 nM | CCOc1cc(F)c(Cn2nc(-c3nc(Nc4ccnc(NC(C)=O)c4)cc(C4CCOCC4)n3)c3ccccc32)c(F)c1 [Example 2-12-90, N-[4-({2-[1-(4-ethoxy-2,6-difluorobenzyl)-1H-indazol-3-yl]-6-(tetrahydro-2H-pyran-4-yl)pyrimidin-4-yl}amino)pyridin-2-yl]acetamide]
> 20000 nM and 9200 nM | CCOc1cc(F)c(Cn2nc(-c3nc(Nc4ccnc(C)n4)cc(-c4nccs4)n3)c3ccccc32)c(F)c1 [Example 2-12-96, 2-[1-(4-ethoxy-2,6-difluorobenzyl)-1H-indazol-3-yl]-N-(2-methylpyrimidin-4-yl)-6-(1,3-thiazol-2-yl)pyrimidin-4-amine]
26 nM | COCCOc1cc(F)c(Cn2nc(-c3nc4c(c(Nc5ccncc5OC)n3)COCC4)c3ccccc32)c(F)c1 [Example 2-12-99, 2-{1-[2,6-difluoro-4-(2-methoxyethoxy)benzyl]-1H-indazol-3-yl}-N-(3-methoxypyridin-4-yl)-7,8-dihydro-5H-pyrano[4,3-d]pyrimidin-4-amin]
99 nM | COCCOc1cc(F)c(Cn2nc(-c3nc4c(c(Nc5ccnc(C)n5)n3)COCC4)c3ccccc32)c(F)c1 [Example 2-12-100, 2-{1-[2,6-difluoro-4-(2-methoxyethoxy)benzyl]-1H-indazol-3-yl}-N-(2-methylpyrimidin-4-yl)-7,8-dihydro-5H-pyrano[4,3-d]pyrimidin-4-amine]
9.7 nM | CCOc1cc(F)c(Cn2nc(-c3nc4c(c(Nc5ccncc5Cl)n3)CCC4)c3ccccc32)c(F)c1 [Example 2-14-7, N-(3-chloropyridin-4-yl)-2-[1-(4-ethoxy-2,6-difluorobenzyl)-1H-indazol-3-yl]-6,7-dihydro-5H-cyclopenta[d]pyrimidin-4-amine]
8.2 nM | CCOc1cc(F)c(Cn2nc(-c3nc4c(c(Nc5ccncc5C5CC5)n3)CCC4)c3ccccc32)c(F)c1 [Example 2-14-8, N-(3-cyclopropylpyridin-4-yl)-2-[1-(4-ethoxy-2,6-difluorobenzyl)-1H-indazol-3-yl]-6,7-dihydro-5H-cyclopenta[d]pyrimidin-4-amine]
7 nM | CCOc1cc(F)c(Cn2nc(-c3nc4c(c(Nc5ccncc5)n3)COC4)c3ccccc32)c(F)c1 [Example 2-14-10, 2-[1-(4-ethoxy-2,6-difluorobenzyl)-1H-indazol-3-yl]-N-(pyridin-4-yl)-5,7-dihydrofuro[3,4-d]pyrimidin-4-amine]
81 nM | COCCOc1cc(F)c(Cn2nc(-c3nc4c(c(Nc5ccnc(C)n5)n3)CCC(C)(C)C4)c3ccccc32)c(F)c1 [Example 2-15-9, 2-{1-[2,6-difluoro-4-(2-methoxyethoxy)benzyl]-1H-indazol-3-yl}-7,7-dimethyl-N-(2-methylpyrimidin-4-yl)-5,6,7,8-tetrahydroquinazolin-4-amine]
1400 nM | COCCOc1cc(F)c(Cn2nc(-c3nc4c(c(Nc5ccncc5Cl)n3)CCC(C)(C)C4)c3ccccc32)c(F)c1 [Example 2-15-10, N-(3-chloropyridin-4-yl)-2-{1-[2,6-difluoro-4-(2-methoxyethoxy)benzyl]-1H-indazol-3-yl}-7,7-dimethyl-5,6,7,8-tetrahydroquinazolin-4-amine]
1700 nM | COCCOc1cc(F)c(Cn2nc(-c3nc4c(c(Nc5ccncc5OC)n3)CCC(C)(C)C4)c3ccccc32)c(F)c1 [Example 2-15-11, 2-{1-[2,6-difluoro-4-(2-methoxyethoxy)benzyl]-1H-indazol-3-yl}-N-(3-methoxypyridin-4-yl)-7,7-dimethyl-5,6,7,8-tetrahydroquinazolin-4-amine]
21 nM | COCCOc1cc(F)c(Cn2nc(-c3nc4c(c(Nc5ccnc(NC(C)=O)c5)n3)CCC(C)(C)C4)c3ccccc32)c(F)c1 [Example 2-15-12, N-{4-[(2-{1-[2,6-difluoro-4-(2-methoxyethoxy)benzyl]-1H-indazol-3-yl}-7,7-dimethyl-5,6,7,8-tetrahydroquinazolin-4-yl)amino]pyridin-2-yl}acetamide]
